Data on 54 compounds can be found in US20100022527A1, “BIPHENYL SUBSTITUTED SPIROTETRONIC ACIDS AND THEIR USE FOR THE TREATMENT OF RETROVIRAL DISEASES” (priority 2006, published 2010).

SMILES strings stand for the structures. Bounds are passed on as bounds.

The target of the test is T1, HIV-1 protease wild type protein (Human immunodeficiency virus type 1 group M subtype B, UniProt P04585).
T1 construct: HIV-1 protease wild type protein; purchased AscoProt Biotech, Prague, Czech Republic
As to the kind of experiment: Biochemical protease assay. The protocol: For the determination of their in vitro activity on HIV proteases the test substances are dissolved in DMSO and serially diluted. In each case 0.5 μl of substance dilution, 20 μl of 0.2-1 nM HIV-1 protease wild type or mutant protein (e.g., multiresistant isolate “35513”: L10I, I15V, L19I, K20R, E35D, M36I, R41K, I54V, L63P, H69K, A71V, T74P, I84V, L89M, L90M, 193L, AscoProt Biotech, Prague, Czech Republic) in buffer 1 (50 mM sodium acetate pH 4.9, 0.02% BSA, 0.1 mM EDTA, 0.5 mM DTT) and 20 μl of 8 μM substrate (M1865 from Bachem, Bubendorf, Switzerland; Matayoshi et al., Science 1990, 247, 954-8) in buffer 1 are added successively to a 384 well microtiter plate (Greiner, Frickenhausen, Germany), incubated for 60-180 minutes at 32° C. and the fluorescence is measured (e.g., Tecan Safire, 340 nm extinction, 520 nm emission). IC50 values are determined by graphical plotting the substance concentration against the percentage inhibition.

Compound `COC1CCC2(CC1)OC(=O)C(c1cc(Cl)c(-c3ccccc3)cc1C)=C2O` (stereo not drawn) [Example 53] returned a 50% inhibitory concentration (IC50) of at most 100 nM.
The compound `Cc1cc(-c2cccc(CO)c2)c(Cl)cc1C1=C(O)C2(CCCCC2)OC1=O` [Example 26] displayed an IC50 of at most 100 nM.
The value for `Cc1cc(-c2cccc(C(=O)NCCC#N)c2)c(Cl)cc1C1=C(O)C2(CCCCC2)OC1=O` [Example 51] was at most 100 nM.
Then `COc1cccc(-c2ccc(C3=C(O)C4(CCCCC4)OC3=O)c(C)c2)c1` [Example 60], with at most 100 nM; and `Cc1cc(-c2cccc([N+](=O)[O-])c2)c(Cl)cc1C1=C(O)C2(CCCCC2)OC1=O` [Example 40], with at most 100 nM.
Then `Cc1cc(-c2cccc(S(C)(=O)=O)c2)c(Cl)cc1C1=C(O)C2(CCCN(CC(=O)NCc3ccc(OC(F)(F)F)cc3)C2)OC1=O` (stereo not drawn) [Example 166], with at most 100 nM; and `COc1cccc(-c2cc(C)c(C3=C(O)C4(CCCCC4)OC3=O)cc2Cl)c1` [Example 32], with at most 100 nM.
The compound `Cc1cc(-c2cccc(S(C)(=O)=O)c2)c(Cl)cc1C1=C(O)C2(CCCN(C(=O)/C=C\c3cccc(C#N)c3)C2)OC1=O` (stereo not drawn) [Example 124] registered an IC50 of at most 100 nM.
For `C/C(=C\C(=O)N1CCCC2(C1)OC(=O)C(c1cc(Cl)c(-c3cccc(S(C)(=O)=O)c3)cc1C)=C2O)CO` (stereo not drawn) [Example 122], the IC50 was at most 100 nM.
Then `Cc1cc(-c2cccc(S(C)(=O)=O)c2)c(Cl)cc1C1=C(O)C2(CCCN(CC(=O)NC(C)c3ccccc3)C2)OC1=O` (stereo not drawn) [Example 134], with at most 100 nM; and `Cc1cc(-c2ccc(Cl)cc2)c(C)cc1C1=C(O)C2(CCC(=O)CC2)OC1=O` [Example 11], with at most 100 nM.
Then `CCOC1CCCCC12OC(=O)C(c1cc(Cl)c(-c3ccccc3)cc1C)=C2O` (single isomer, unassigned) [Example 77], with at most 100 nM.
Then `Cc1cc(-c2cccc(NS(C)(=O)=O)c2)c(Cl)cc1C1=C(O)C2(CCCN(CC(=O)NCc3ccccc3)C2)OC1=O` (stereo not drawn) [Example 97], with at most 100 nM; and `Cc1cc(-c2cccc(NS(=O)(=O)Cc3ccccc3)c2)c(Cl)cc1C1=C(O)C2(CCCCC2)OC1=O` [Example 191], with at most 100 nM.
Compound `CCS(=O)(=O)Nc1cccc(-c2cc(C)c(C3=C(O)C4(CCCCC4)OC3=O)cc2Cl)c1` [Example 190] yielded an IC50 of at most 100 nM.
Then `Cc1cc(-c2cccc(S(C)(=O)=O)c2)c(Cl)cc1C1=C(O)C2(CCCN(C(=O)/C=C\c3c[nH]cn3)C2)OC1=O` (stereo not drawn) [Example 123], with at most 100 nM; and `Cc1cc(-c2cccc(NC(=O)CCN)c2)c(Cl)cc1C1=C(O)[C@]2(CC[C@@H]3CCC[C@@H]3C2)OC1=O` [Example 183], with at most 100 nM; and `CC(=O)N1CCC2(CC1)OC(=O)C(c1cc(Cl)c(-c3cccc(S(C)(=O)=O)c3)cc1C)=C2O` [Example 158], with at most 100 nM.
Then `Cc1cc(-c2cccc(S(C)(=O)=O)c2)c(Cl)cc1C1=C(O)C2(CCCN(CC(=O)NCc3ccco3)C2)OC1=O` (stereo not drawn) [Example 169], with at most 100 nM; and `Cc1cc(-c2cccc(S(C)(=O)=O)c2)c(Cl)cc1C1=C(O)C2(CCCN(C(=O)/C=C\c3cnn(C)c3)C2)OC1=O` (stereo not drawn) [Example 121], with at most 100 nM; and `Cc1cc(-c2ccc(NS(C)(=O)=O)cc2)c(Cl)cc1C1=C(O)C2(CCCCC2)OC1=O` [Example 178], with at most 100 nM.
In turn, `COC(=O)CCCC(=O)N1CCC2(CC1)OC(=O)C(c1cc(Cl)c(-c3cccc(S(C)(=O)=O)c3)cc1C)=C2O` [Example 138, methyl 5-{3-[2-chloro-5-methyl-3′-(methylsulfonyl)biphenyl-4-yl]-4-hydroxy-2-oxo-1-oxa-8-azaspiro[4.5]dec-3-en-8-yl}-5-oxopentanoate] gave a 50% inhibitory concentration (IC50) of at most 100 nM.
`Cc1cc(-c2ccc(NC(=O)OC(C)(C)C)cc2)c(Cl)cc1C1=C(O)C2(CCCCC2)OC1=O` [Example 43] came in with an IC50 of at most 100 nM.
The value for `CCOc1cc(-c2cccc(S(C)(=O)=O)c2)c(C)cc1C1=C(O)C2(CCCCC2)OC1=O` [Example 93] was at most 100 nM.
Then `CCOc1ccccc1-c1cc(C)c(C2=C(O)C3(CCC(OC)CC3)OC2=O)cc1Cl` (stereo not drawn) [Example 55], with at most 100 nM; and `COC1CCC2(CC1)OC(=O)C(c1cc(C)c(-c3ccc(Cl)cc3)cc1C)=C2O` (stereo not drawn) [Example 58], with at most 100 nM.
In turn, `Cc1cc(-c2ccc(N)cc2)c(Cl)cc1C1=C(O)C2(CCCCC2)OC1=O` [Example 171, 3-(4′-Amino-2-chloro-5-methylbiphenyl-4-yl)-4-hydroxy-1-oxaspiro[4.5]dec-3-en-2-one] returned a half-maximal inhibitory concentration (IC50) of at most 100 nM.
Then `Cc1cc(-c2ccc(Cl)cc2)c(C)cc1C1=C(O)C2(CCCCCC2)OC1=O` [Example 10], with at most 100 nM; and `Cc1cc(-c2cccc(S(C)(=O)=O)c2)c(Cl)cc1C1=C(O)C2(CCCN(CC(=O)NCc3ccccc3)C2)OC1=O` (single isomer, unassigned) [Example 164], with at most 100 nM.
`Cc1cc(-c2cccc(NC(=O)CN(C)C)c2)c(Cl)cc1C1=C(O)[C@]2(CC[C@@H]3CCC[C@@H]3C2)OC1=O` [Example 182] gave an IC50 of at most 100 nM.
The value for `COC1CCCCC12OC(=O)C(c1cc(C)c(-c3ccc(Cl)cc3)cc1C)=C2O` (stereo not drawn) [Example 15] was at most 100 nM.
Then `Cc1cc(-c2cccc(NC(=O)CCCN(C)C)c2)c(Cl)cc1C1=C(O)C2(CCCCC2)OC1=O` [Example 181], with at most 100 nM; and `CC(=O)Nc1cc(-c2cc(C)c(C3=C(O)C4(CCCCC4)OC3=O)cc2Cl)ccc1C` [Example 184, N-[2′-Chloro-4′-(4-hydroxy-2-oxo-1-oxaspiro[4.5]dec-3-en-3-yl)-4,5′-dimethylbiphenyl-3-yl]acetamide], with at most 100 nM.
The value for `Cc1cc(-c2cccc(S(C)(=O)=O)c2)c(Cl)cc1C1=C(O)C2(CCN(C(=O)OCc3ccccc3)CC2)OC1=O` [Example 72, benzyl 3-[2-chloro-5-methyl-3′-(methylsulfonyl)biphenyl-4-yl]-4-hydroxy-2-oxo-1-oxa-8-azaspiro[4.5]dec-3-ene-8-carboxylate] was at most 100 nM.
As to `Cc1cc(-c2ccccc2)ccc1C1=C(O)C2(CCCCC2)OC1=O` [Example 59], the IC50 is at most 100 nM.
On to `Cc1cc(-c2cccc(S(C)(=O)=O)c2)c(Cl)cc1C1=C(O)C2(CCCN(C(C)C3=NOCCO3)C2)OC1=O` (stereo not drawn) [Example 102], for which the IC50 was at most 100 nM.
The value for `Cc1cc(-c2cccc(S(C)(=O)=O)c2)c(Cl)cc1C1=C(O)C2(CCCN(CC(=O)NCc3ccsc3)C2)OC1=O` (stereo not drawn) [Example 167] was at most 100 nM; that for `Cc1cc(-c2ccc3c(c2)OCO3)c(Cl)cc1C1=C(O)C2(CCCCC2)OC1=O` [Example 24] was at most 100 nM; that for `COc1ccc(-c2ccc(C3=C(O)C4(CCCCC4)OC3=O)c(C)c2)cc1` [Example 62] was at most 100 nM.
Then `Cc1cc(-c2ccc([N+](=O)[O-])cc2)c(Cl)cc1C1=C(O)C2(CCC3CCCC3C2)OC1=O` (stereo not drawn) [Example 89], with at most 100 nM.
For the compound `Cc1cc(-c2cccc(S(C)(=O)=O)c2)c(Cl)cc1C1=C(O)C2(CCCN(CC(=O)NCc3ccccc3)C2)OC1=O` (stereo not drawn) [Example 128], the IC50 was at most 100 nM.
On to `Cc1cc(-c2cccc(S(C)(=O)=O)c2)c(Cl)cc1C1=C(O)C2(CCN(C(=O)CCCc3ccccc3)CC2)OC1=O` [Example 145], for which the IC50 is at most 100 nM.
Compound `Cc1cc(-c2cccc(S(C)(=O)=O)c2)c(Cl)cc1C1=C(O)C2(CCCN(CC(=O)NCCc3ccccc3)C2)OC1=O` (stereo not drawn) [Example 130] yielded an IC50 of at most 100 nM.
In turn, `Cc1cc(-c2cccc(S(C)(=O)=O)c2)c(Cl)cc1C1=C(O)C2(CCCN(CC(=O)NCc3ccncc3)C2)OC1=O` (stereo not drawn) [Example 161, 2-{3-[2-Chloro-5-methyl-3′-(methylsulfonyl)biphenyl-4-yl]-4-hydroxy-2-oxo-1-oxa-7-azaspiro[4.5]dec-3-en-7-yl}-N-(pyridin-4-ylmethyl)acetamide] showed an IC50 of at most 100 nM.
`Cc1cc(-c2cc(C)c(C3=C(O)C4(CCCCC4)OC3=O)cc2Cl)ccc1F` [Example 34] displayed a concentration for half-maximal inhibition (IC50) of at most 100 nM.
As to `Cc1cc(-c2cccc(S(C)(=O)=O)c2)c(Cl)cc1C1=C(O)C2(CCN(C(=O)Cc3ccc(OC(F)(F)F)cc3)CC2)OC1=O` [Example 144], the IC50 was at most 100 nM.
The value for `Cc1cc(-c2ccc(Cl)cc2)c(C)cc1C1=C(O)C2(CCC3CCCC3C2)OC1=O` (stereo not drawn) [Example 12] was at most 100 nM; that for `Cc1ccc(-c2cc(C)c(C3=C(O)C4(CCCCC4)OC3=O)cc2Cl)cc1` [Example 22] was at most 100 nM.
Then `Cc1cc(-c2cccc(S(C)(=O)=O)c2)c(Cl)cc1C1=C(O)C2(CCCN(CC(=O)C(C)(CF)CF)C2)OC1=O` (stereo not drawn) [Example 129], with at most 100 nM; and `Cc1cc(-c2cccc(OC(F)(F)F)c2)c(Cl)cc1C1=C(O)C2(CCCCC2)OC1=O` [Example 38], with at most 100 nM; and `CC(=O)N1CCCC2(C1)OC(=O)C(c1cc(Cl)c(-c3cccc(S(C)(=O)=O)c3)cc1C)=C2O` (stereo not drawn) [Example 104], with at most 100 nM.
`Cc1cc(-c2cccc(S(C)(=O)=O)c2)c(Cl)cc1C1=C(O)C2(CCN(C(=O)CCc3cccnc3)CC2)OC1=O` [Example 147] had an IC50 of at most 100 nM.
The compound `Cc1cc(-c2cccc(S(C)(=O)=O)c2)c(Cl)cc1C1=C(O)C2(CCCC2)OC1=O` [Example 200] displayed an IC50 of at most 100 nM.
Then `Cc1cc(-c2ccc(C(=O)O)cc2)c(Cl)cc1C1=C(O)C2(CCCCC2)OC1=O` [Example 30], with at most 100 nM.
